A short description of series [1]: Inhibition of NP-40-induced beta-haematin formation after 5 to 6 hrs hrs by UV-vis spectroscopic analysis. The series is classed as physicochemical.
Series [2] has as its system CHO. Put plainly: Cytotoxicity against CHO cells by MTT assay. The note with it: Cricetulus griseus. The series is classed as cell-based.

Consider `CCN(CC)CCCC(C)Nc1ccnc2cc(Cl)ccc12` (stereo not drawn) [CHLOROQUINE], for which, in series [1], half-maximal inhibition (IC50) required 18.2 µM.

For `CC[C@H]1CN2CCc3cc(OC)c(OC)cc3[C@@H]2C[C@@H]1C[C@H]1NCCc2cc(OC)c(OC)cc21` [EMETINE], half-maximal inhibition in series [2] (IC50) required 0.041 µM. `CCN(CC)Cc1cc(Nc2ccnc3cc(Cl)ccc23)ccc1O` returned an IC50 in series [1] of 6.8 µM.

Values taken from ChEMBL document CHEMBL2434909, “In vitro antimalarial activity, β-haematin inhibition and structure-activity relationships in a series of quinoline triazoles” (Eur J Med Chem, 2013).
